Test results from patent US20250082633A1, “COMPOUNDS AND METHODS FOR MODULATING SPLICING” (REMIX THERAPEUTICS INC., priority 2021, published 2025).

Key:
[1] = tested on: Target C; experiment: HiBit protein abundance assay, Target C; assay type: cell-based; details: Homo sapiens; K562 HiBiT-modified cells, 24 hours, luminescence
Procedure: (§1) Compounds described herein were used to screen for effects on quantitative protein abundance using a HiBit assay system (Promega). Quantitative protein abundance was determined by measuring the protein levels of HiBit-tagged protein targets expressed in cell culture via luminescence using the Nano-Glo HiBiT Lytic Detection System, which uses a split complementation assay format to reconstitute NanoBiT enzyme to generate a luminescent signal. A protein abundance assay was developed such that endogenous protein targets could be modified with the HiBiT peptide tag and their abundance could be assessed after compound treatment. Briefly, K562 cell lines containing a HiBiT-modification were treated with various compounds described herein (e.g., compounds of Formulas (I), (II), or (III)). After treatment for 24 hours, the protein abundance of a specific target was determined by measuring luminescence. • Promega Nano-Glo HiBiT Lytic Detection System (cat #N3030) • Corning 384-well TC-treated microplates (cat #3570) • Synthego Engineered Cells Knock-In Clones Cells were maintained in IMDM with 10% FBS. Before the assay, cells were diluted with phenolphthalein-free growth media (IMDM+1% FBS media) and were seeded in a 384-well plate at a density of 10000 cells/well (for each cell line listed in Table 6). Each compound was prepared as a 10-point 3-fold serial dilution in DMSO with the top dose at a final concentration of 10 μM in the well. Unmodified K562 cells were added at the previously specified density with DMSO to serve as an assay baseline and positive control (PC) and DMSO only with the respective modified cell lines was added to the negative control (NC) columns. Final DMSO concentration was kept at or below 0.25%. Treated cell plates were placed in an incubator at 37° C. with 5% CO2 for 24 hours. After 24 hours, 25 μL of Complete HiBit Lytic reagent was added to each well at room temperature (e.g. one plate requiring 10 mL Lytic Buffer, 100 μL LgBiT Protein, 200 μL Lytic Substrate), shaken for 5 minutes at 600 RPM, then left to sit for 10 minutes for signal to stabilize before reading on a Spark Cyto plate reader (Tecan) with a 500 ms measurement time. To determine compound effects on protein abundance of each target in Table 6, the percent response for each respective cell line was calculated at each compound concentration as follows: For the normalized response at each concentration, a four-parameter logistical regression was fit to the data and the response was interpolated at the 50% value to determine a concentration for protein abundance at 50% (IC50) the untreated control.

[2] = tested on: HiBiT-tagged MYB protein in K562 cells; experiment: HiBit protein abundance assay, MYB; assay type: cell-based, human; details: K562 HiBiT-modified cells, 24 hours, luminescence
Procedure: as §1, with “Clones [table]” for “Clones”

| Structure (SMILES) | IC50 [1] [nM] | IC50 [2] [nM] |
| --- | --- | --- |
| Cc1cn2nc(-c3cc(F)c4nn([C@@H]5CCNC[C@H]5F)cc4c3)cc(C)c2n1 [Compound 168, 6-(7-fluoro-2-((3R,4R)-3-fluoropiperidin-4-yl)-2H-indazol-5-yl)-2,8-dimethylimidazo [1,2-b]pyridazine] | 100 to 1000 | 100 to 1000 |
| Cc1cn2nc(-c3cc(F)c4nn(C5CCNC6(CC6)C5)cc4c3)cc(C)c2n1 (stereo not drawn) [Compound 171, 6-[2-(4-azaspiro[2.5]octan-7-yl)-7-fluoro-indazol-5-yl]-2,8-dimethyl-imidazo[1,2-b]pyridazine] | < 100 | 100 to 1000 |
| Cc1cn2nc(-c3cc(F)c4nn([C@H]5CCNC6(CC6)C5)cc4c3)cc(C)c2n1 [Compound 172] | < 100 | < 100 |
| Cc1cn2nc(-c3cc(F)c4nn([C@@H]5CCNC6(CC6)C5)cc4c3)cc(C)c2n1 [Compound 173] | < 100 | 100 to 1000 |
| Cc1cn2nc(-c3cc(F)c4nn(C5CCN(C)C6(CC6)C5)cc4c3)cc(C)c2n1 (stereo not drawn) [Compound 174, 6-[7-fluoro-2-(4-methyl-4-azaspiro[2.5]octan-7-yl)indazol-5-yl]-2,8-dimethyl-imidazo[1,2-b]pyridazine] | < 100 | 100 to 1000 |
| CCN1CCC(n2cc3cc(-c4cc(C)c5nc(C)cn5n4)cc(F)c3n2)CC12CC2 (stereo not drawn) [Compound 177, 6-[2-(4-ethyl-4-azaspiro[2.5]octan-7-yl)-7-fluoro-indazol-5-yl]-2,8-dimethyl-imidazo[1,2-b]pyridazine] | < 100 | 100 to 1000 |
| Cc1cn2nc(-c3cc(F)c4nn(C5CCN(CCO)C6(CC6)C5)cc4c3)cc(C)c2n1 (stereo not drawn) [Compound 180, 2-[7-[5-(2,8-dimethylimidazo[1,2-b]pyridazin-6-yl)-7-fluoro-indazol-2-yl]-4-azaspiro[2.5]octan-4-yl]ethanol] | < 100 | 100 to 1000 |
| Cc1cn2nc(-c3cc(F)c4nn(C5CCN(C6CCC6)C6(CC6)C5)cc4c3)cc(C)c2n1 (stereo not drawn) [Compound 186, 6-[2-(4-cyclobutyl-4-azaspiro[2.5]octan-7-yl)-7-fluoro-indazol-5-yl]-2,8-dimethyl-imidazo[1,2-b]pyridazine] | < 100 | 100 to 1000 |

Now from value to compound:

| IC50 [1] [nM] | IC50 [2] [nM] | Structure (SMILES) |
| --- | --- | --- |
| < 100 | 100 to 1000 | Cc1cn2nc(-c3cc(F)c4nn(C5CCN(CC6CC6)C6(CC6)C5)cc4c3)cc(C)c2n1 (stereo not drawn) [Compound 183, 6-[2-[4-(cyclopropylmethyl)-4-azaspiro[2.5]octan-7-yl]-7-fluoro-indazol-5-yl]-2,8-dimethyl-imidazo[1,2-b]pyridazine] |
| < 100 | 100 to 1000 | Cc1cn2nc(-c3cc(F)c4nn(C5CCNC6(CCC6)C5)cc4c3)cc(C)c2n1 (stereo not drawn) [Compound 189, 6-[2-(5-azaspiro[3.5]nonan-8-yl)-7-fluoro-indazol-5-yl]-2,8-dimethyl-imidazo[1,2-b]pyridazine] |
| 100 to 1000 | 100 to 1000 | Cc1cn2nc(-c3ccc4nn(C5CCNCC5)cc4c3)cc(C)c2n1 [Compound 192, 2,8-dimethyl-6-[2-(4-piperidyl)indazol-5-yl]imidazo[1,2-b]pyridazine] |
| < 100 | 100 to 1000 | Cc1cn2nc(-c3cc(F)c4nn(CC5CCNCC5)cc4c3)cc(C)c2n1 [Compound 212, 6-[7-fluoro-2-(4-piperidylmethyl)indazol-5-yl]-2,8-dimethyl-imidazo[1,2-b]pyridazine] |
